According to patent publication US10793542B2, “Hetroarylamine compounds for modulating the hedgehog pathway and preparing method and uses thereof” (DEVELOPMENT CENTER FOR BIOTECHNOLOGY, priority 2016, dated 2020):

What was measured:
Type in all cases: cell-based
[1] = molecular target: T1, Smo D473H mutant (Homo sapiens, UniProt Q99835, D473H); assay: Reporter assay of C3H10T1/2-Gli-Luc cells transfected with Smo D473H mutant, without SAG; settings: C3H10T1/2 cells transfected with pLPCX-SMO-D473H, no SAG, 48 hr; read-out: Inhibition of C3H10T1/2-Gli-Luc-Smo-D473H [IC50
T1 construct: expressed in transfected cells; host or cells: C3H10T1/2 cells (ATCC CCL-226), transient transfection with pLPCX-SMO-D473H
Protocol: (§1) A transient transfection system with a Smo wild type or a Smo D473H mutant was also used for compound screening. For the SMO inhibition experiments, cells were transfected with an additional 500 ng/well of wild-type or D473H-mutant type SMO construct (pLPCX-SMO or pLPCX-SMO-D473H). After 24 h, transfected cells were collected by trypsin treatment and re-plated in 96-well plates in an RPMI medium containing 0.5% FBS with a density of 1.5×10^4 cells/well. Compounds were dissolved in DMSO with serial dilutions and were then added to the assay plate. The assay plates were incubated at 37° C. for 48 hr.
(§2) Firefly luciferase and Renilla luciferase activity was determined using the Dual-Glo Luciferase reporter assay system (Promega) with a Victor3 plate reader (PerkinElmer Life Sciences). Firefly luciferase readings were normalized to Renilla luciferase to correct for transfection efficiency. Luminance reading for the C3H10T1/2-Gli-Luc assay was normalized based on DMSO control with SAG stimulation (100% pathway activity) and without SAG stimulation (0% pathway activity). IC50 values, defined as the inflection point of the logistic curve, were determined by nonlinear regression using the Prism 5 software (GraphPad).
(§3) The reporter assay of C3H10T1/2-Gli-Luc cells transfected with a wild-type, D473H mutant Smo mutant was carried out with the same protocol but without SAG stimulation. Luminance reading for the SMO inhibition experiments assay was normalized based on DMSO control (100% of the pathway activity) and a known Smo antagonist (ALLO-2 at 10 μM, 0% of the pathway activity).

[2] = molecular target: T2, Smo wild type (Homo sapiens, UniProt Q99835); assay: Reporter assay of C3H10T1/2-Gli-Luc cells transfected with wild-type Smo, without SAG; settings: C3H10T1/2 cells transfected with pLPCX-SMO, no SAG, 48 hr; read-out: Inhibition of C3H10T1/2-Gli-Luc-Smo-WT [IC50
T2 construct: expressed in transfected cells; host or cells: C3H10T1/2 cells (ATCC CCL-226), transient transfection with pLPCX-SMO
Protocol: as §1, §2, §3

[3] = tested on: hedgehog pathway (pGL3-7xGli-Luciferase reporter in C3H10T1/2 cells); assay: Transient transfection of C3H10T1/2 and Gli-Luc reporter assay with SAG stimulation; settings: Mus musculus, C3H 10T1/2, SAG 20 nM, 48 hr, read-out: Inhibition of Gli-Luc expression [IC50
Protocol: A cell-based screen for inhibitors of the hedgehog pathway was performed using a transient transfection system in C3H10T1/2 cells with pGL3-7xGli-Luciferase reporter plasmids C3H10T1/2 cells (ATCC, cat.#CCL-226) were seeded into 6-well plates at 8×10^4 cells/well in a BME medium containing 10% heat-inactivated FBS. Cells were transfected the next morning with 500 ng/well pGL3-7xGli-Luciferase reporter plasmids and 100 ng/well pRL-TK Renilla luciferase reporter plasmids (Promega)using GeneJuice transfection reagent (Novagene). After 24 h, transfected cells were collected by trypsin treatment and re-plated in 96-well plates in an RPMI medium containing 0.5% FBS with a density of 1.5×10^4 cells/well. Compounds were dissolved in DMSO with serial dilutions and were then added to the assay plate. SAG (Hh-Ag 1.3) (Santa Cruz) was added to the assay plated for a final concentration 20 nM. The assay plates were incubated at 37° C. for 48 hr.
as §2

T2 sequence (Q99835 28-787): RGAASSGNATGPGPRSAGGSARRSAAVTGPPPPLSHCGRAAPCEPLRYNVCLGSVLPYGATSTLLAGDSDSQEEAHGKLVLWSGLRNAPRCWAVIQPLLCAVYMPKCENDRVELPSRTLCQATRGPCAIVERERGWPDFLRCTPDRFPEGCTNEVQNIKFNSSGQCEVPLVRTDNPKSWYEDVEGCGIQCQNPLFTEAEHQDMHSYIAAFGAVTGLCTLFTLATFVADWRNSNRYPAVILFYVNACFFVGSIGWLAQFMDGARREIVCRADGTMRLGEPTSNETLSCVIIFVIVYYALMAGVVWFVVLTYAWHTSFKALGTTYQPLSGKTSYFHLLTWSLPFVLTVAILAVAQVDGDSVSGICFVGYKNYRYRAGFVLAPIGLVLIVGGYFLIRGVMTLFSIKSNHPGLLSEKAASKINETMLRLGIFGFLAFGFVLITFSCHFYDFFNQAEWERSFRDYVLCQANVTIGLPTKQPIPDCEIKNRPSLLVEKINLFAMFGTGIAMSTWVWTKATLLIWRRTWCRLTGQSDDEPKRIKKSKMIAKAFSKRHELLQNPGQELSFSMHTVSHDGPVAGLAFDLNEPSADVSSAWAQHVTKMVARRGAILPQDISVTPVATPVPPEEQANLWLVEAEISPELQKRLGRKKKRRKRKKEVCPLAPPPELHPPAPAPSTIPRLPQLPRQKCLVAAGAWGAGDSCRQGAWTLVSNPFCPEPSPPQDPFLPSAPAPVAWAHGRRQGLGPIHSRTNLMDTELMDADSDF
T1 sequence (Q99835 28-787 D473H): as the sequence (Q99835 28-787) above, with D446H counted along it

SMILES | IC50 [1] | IC50 [2] | IC50 [3]
CSc1cnc(Nc2ccc(C(=O)Nc3c(F)cccc3F)cc2)nc1-c1cccnc1 [Compound 10, N-(2,6-Difluoro-phenyl)-4-(5-methylsulfanyl-4-pyridin-3-yl-pyrimidin-2-ylamino)-benzamide] | 100 to 1000 nM | 100 to 1000 nM | 100 to 1000 nM
CSc1cnc(Nc2ccc(C(=O)Nc3cc(CN(C)C)ccc3C)cc2)nc1-c1ccc(F)cc1 [Compound 31, N-(5-Dimethylaminomethyl-2-methyl-phenyl)-4-[4-(4-fluoro-phenyl)-5-methylsulfanyl-pyrimidin-2-ylamino]-benzamide] | 100 to 1000 nM | < 100 nM | < 100 nM
CSc1cnc(Nc2ccc(C(=O)Nc3cc(CN4CCOCC4)ccc3C)cc2)nc1-c1ccccc1 [Compound 20, N-(2-Methyl-5-morpholin-4-ylmethyl-phenyl)-4-(5-methylsulfanyl-4-phenyl-pyrimidin-2-ylamino)-benzamide] | 100 to 1000 nM | < 100 nM | < 100 nM
CSc1cnc(Nc2ccc(C(=O)Nc3cc(CN(C)C)ccc3C)cc2)cc1-c1ccc(OC(F)(F)F)cc1 [Compound 83, N-(5-Dimethylaminomethyl-2-methyl-phenyl)-4-[5-methylsulfanyl-4-(4-trifluoromethoxy-phenyl)-pyridin-2-ylamino]-benzamide] | < 100 nM | < 100 nM | < 100 nM
CSc1cnc(Nc2ccc(C(=O)Nc3cc(CN(C)C)ccc3C)cc2)nc1-c1ccc(C(F)(F)F)cc1 [Compound 32, N-(5-Dimethylaminomethyl-2-methyl-phenyl)-4-[5-methylsulfanyl-4-(4-trifluoromethyl-phenyl)-pyrimidin-2-ylamino]-benzamide] | 100 to 1000 nM | 100 to 1000 nM | 100 to 1000 nM
CSc1cnc(Nc2ccc(C(=O)Nc3ccccc3C)cc2)nc1-c1cccnc1F [Compound 11, 4-[4-(2-Fluoro-pyridin-3-yl)-5-methylsulfanyl-pyrimidin-2-ylamino]-N-o-tolyl-benzamide] | 100 to 1000 nM | 100 to 1000 nM | 100 to 1000 nM

Now from value to compound:

IC50 [1] | IC50 [2] | IC50 [3] | SMILES
< 100 nM | < 100 nM | < 100 nM | CNc1cnc(Nc2ccc(C(=O)Nc3cc(CN4CCOCC4)ccc3C)cc2)nc1-c1ccc(OC(F)(F)F)cc1 [Compound 91, N-(2-methyl-5-(morpholinomethyl)phenyl)-4-((5-(methylamino)-4-(4-(trifluoromethoxy)phenyl)pyrimidin-2-yl)amino)benzamide]
< 100 nM | < 100 nM | < 100 nM | CSc1cnc(Nc2ccc(C(=O)Nc3cc(CN4CCOCC4)ccc3C)cc2F)nc1-c1ccc(OC(F)(F)F)cc1 [Compound 40, 3-Fluoro-N-(2-methyl-5-morpholin-4-ylmethyl-phenyl)-4-[5-methylsulfanyl-4-(4-trifluoromethoxy-phenyl)-pyrimidin-2-ylamino]-benzamide]
100 to 1000 nM | < 100 nM | < 100 nM | CSc1cnc(Nc2ccc(C(=O)Nc3cccc(CN4CCOCC4)c3)cc2)nc1-c1ccc(OC(F)(F)F)cc1 [Compound 65, 4-[5-Methylsulfanyl-4-(4-trifluoromethoxy-phenyl)-pyrimidin-2-ylamino]-N-(3-morpholin-4-ylmethyl-phenyl)-benzamide]
< 100 nM | < 100 nM | < 100 nM | Cc1ccc(CN2CCOCC2)cc1NC(=O)c1ccc(Nc2ncc([S+](C)[O-])c(-c3ccc(OC(F)(F)F)cc3)n2)cc1 (stereo not drawn) [Compound 85, 4-[5-Methanesulfinyl-4-(4-trifluoromethoxy-phenyl)-pyrimidin-2-ylamino]-N-(2-methyl-5-morpholin-4-ylmethyl-phenyl)-benzamide]
< 100 nM | < 100 nM | < 100 nM | CSc1cnc(Nc2ccc(C(=O)Nc3cc(CN4CCOCC4)ccc3C)cn2)nc1-c1ccc(OC(F)(F)F)cc1 [Compound 63, N-(2-Methyl-5-morpholin-4-ylmethyl-phenyl)-6-[5-methylsulfanyl-4-(4-trifluoromethoxy-phenyl)-pyrimidin-2-ylamino]-nicotinamide]
